Consider eight compounds from ChEMBL document CHEMBL1800015, “Cytotoxic steroidal alkaloids from Kibatalia laurifolia” (J Nat Prod, 2011).

This assay deals with KB. In words: Cytotoxicity against human KB cells after 72 hrs by neutral red based colorimetry assay. It counts as functional, cell-based.

Some results are limits rather than exact numbers.

The term IC50 denotes the concentration needed to halve the response being measured. Low readings indicate greater potency in that assay, high ones weaker potency in that assay. `CN[C@H]1CC[C@@]2(C)C(=CC[C@H]3[C@@H]4CC[C@@H]5[C@H](C)OC(=O)[C@@]54CC[C@@H]32)C1` [PARAVALLARINE] yielded an IC50 of 12.8 µM.

In turn, `CC(=O)N(C)[C@H]1C=C2C=C[C@H]3[C@@H]4CC[C@@H]5[C@H](C)OC(=O)[C@@]54CC[C@@H]3[C@@]2(C)CC1` [KIBALAURIFOLINE] showed an IC50 of 21 µM. This IC50 is about 1.6-fold higher than that of the compound before.

Compound `C[C@@H]1OC(=O)[C@]23CC[C@H]4[C@@H](CC=C5C[C@@H](N)CC[C@@]54C)[C@@H]2CC[C@H]13` had an IC50 of 21.2 µM. The IC50 values of the last two compounds are within 1.5-fold of each other.

`CC(=O)N[C@@H]1CC[C@@]2(C)C(=CC[C@H]3[C@@H]4CC[C@@H]5[C@H](C)OC(=O)[C@@]54CC[C@@H]32)C1` registered a concentration for half-maximal inhibition (IC50) of over 50 µM.

On to `CN[C@H]1CC[C@@]2(C)C(=C[C@@H](O)[C@H]3[C@@H]4CC[C@@H]5[C@H](C)OC(=O)[C@@]54CC[C@@H]32)C1`, for which the half-inhibitory concentration (IC50) is over 50 µM.

`C[C@@H]1OC(=O)[C@]23CC[C@H]4[C@@H](C(=O)C=C5C=CCC[C@@]54C)[C@@H]2CC[C@H]13` [KIBALAURIFENONE] yielded a half-inhibitory concentration (IC50) of 21 µM. This counts as double-digit micromolar.

`CN[C@@H]1CC[C@@]2(C)C(=CC[C@H]3[C@@H]4CC[C@@H]5[C@H](C)OC(=O)[C@@]54CC[C@@H]32)C1` showed an IC50 of 21 µM.

`C[C@@H]1OC(=O)[C@]23CC[C@H]4[C@@H](CC=C5C[C@H](N)CC[C@@]54C)[C@@H]2CC[C@H]13` [GITINGENSINE] displayed an IC50 of 21 µM.
